Experiments:
[1] = in vivo; cited from earlier work
[2] = large doses, acute systemic administration; cited from earlier work
[3] = co-treatment with pramipexole; cited from earlier work
[4] = in vivo; cited from earlier work; remark: listed apart in the source
Caenorhabditis elegans = conditions: in vivo; cited from earlier work
[5] = 4.5 mg/day with levodopa, entcapone, selegiline and zonisamide; after switch from immediate-release to extended-release; cited from earlier work
[6] = Period 2 (with oral domperidone) versus Period 1 (pramipexole alone)
Text: The study is single center, single-blind study.
To be enrolled in the study, participants must meet the following inclusion/exclusion key criteria:
History of drug or other significant allergy. • 5.

[7] = 5 mg/day of pramipexole, cited from earlier work
dopaminergic neurons = conditions: mouse PD model, cited from earlier work
[8] = molecular target: human wild-type alpha-synuclein (Homo sapiens, UniProt P37840); conditions: in vitro, by H2O2 plus cytochrome c; cited from earlier work
alpha-synuclein = alpha-synuclein (Homo sapiens, UniProt P37840); conditions: cited from earlier work
[9] = system: human neuroblastoma SH-SY5Y cells; conditions: cited from earlier work
[10] = doses approved for motor symptoms of PD; 535 PD patients; cited from earlier work
brain cell systems = conditions: cited from earlier work
[11] = system: 6-OHDA-lesioned cell model; conditions: cited from earlier work
nigral dopamine neurons = conditions: 6-OHDA mice, injection of 30 mg/kg; cited from earlier work
[12] = system: nigrostriatal dopaminergic neurons; conditions: chronic administration, compared with saline; cited from earlier work
[13] = system: rat corticostriatal slices; conditions: 0.3, 1, 3 and 10 μM; cited from earlier work
[14] = system: nigral TH-positive neurons; conditions: MPTP-treated mice, 20 mg/kg; cited from earlier work
A53T α-synuclein = molecular target: T1, A53T α-synuclein (Homo sapiens, UniProt P37840, A53T); conditions: oral 40 mg/kg/day, cited from earlier work
T1 construct: host or cells: rat brain in vivo, transduced with a viral vector

[15] = 25 mg-50 mg, alone or with levodopa; cited from earlier work

In the case of `CNCCC(Oc1ccc(C(F)(F)F)cc1)c1ccccc1` (stereo not drawn) [fluoxetine, 1-methylamino-3-phenyl-3-[4-(trifluoromethyl)phenoxy]propane], the MPTP induced damage [1] is given as “protect against”, the “extracellular concentrations of norepinephrine and dopamine” value [2] is given as “significant increase in extracellular concentrations of norepinephrine and dopamine” and the “activity of pramipexole in the forced swimming test” value [3] is given as “enhance the activity of pramipexole”. The 6-OHDA induced damage [4] was “protect against” and the amyloid-β-induced paralysis (Caenorhabditis elegans) was “significantly delay amyloid-β-induced paralysis”.
For `CCCN[C@H]1CCc2nc(N)sc2C1` [pramipexole, (S)-6-propylamino-4,5,6,7-tetrahydro-1,3-benzothiazole-2-amine], the hallucinations [5] is listed as “induce hallucinations”, the “Maximum Tolerated Dose (MTD) of pramipexole” value [6] is listed as “higher than MTD during Period 1” and the patients with nausea [7] is listed as 76%. The patients with vomiting [7] was 39%, the “patients not able to complete the study” value ([7]; presumably intolerable GI adverse events) was 36% and the immunoreactivity for alpha-synuclein (dopaminergic neurons; rotenone) was “reducing immunoreactivity for alpha-synuclein”. The “toxic effects of rotenone on dopaminergic neurons” value (dopaminergic neurons) was “inhibits the toxic effects of rotenone on dopaminergic neurons”, the “oligomerization of human wild-type alpha-synuclein” value [8] was “decreases the in vitro oligomerization of human wild-type alpha-synuclein” and the “synuclein oligomer formation / aggregation in vitro” value (alpha-synuclein) was “diminishes synuclein oligomer formation in vitro”. The aggregation of alpha-synuclein [9] was “inhibit the aggregation of alpha-synuclein” and the “neuroprotective (disease modifying) activity” value [10] was “failed to evidence neuroprotective (i.e., disease modifying) activity”.
For `CCC(C)(C)C(=O)O[C@H]1C[C@@H](C)C=C2C=C[C@H](C)[C@H](CC[C@@H]3C[C@@H](O)CC(=O)O3)[C@H]21` [simvastatin, (1S,3R,7S,8S,8aR)-8-{2-[(2R,4R)-4-hydroxy-6-oxotetrahydro-2H-pyran-2-yl]ethyl}-3,7-dimethyl-1,2,3,7,8,8a-hexahydronaphthalen-1-yl 2,2-dimethylbutanoate], the “protection against 6-hydroxydopamine (6-OHDA)” value (brain cell systems) is listed as “protect against the deleterious consequences of the dopaminergic neurotoxin 6-hydroxydopamine” and the “neuroprotection against dopaminergic neurodegeneration” value [11] is listed as “robust neuroprotection against dopaminergic neurodegeneration”.
In the case of `NS(=O)(=O)Cc1noc2ccccc12` [zonisamide, benzo[d]isoxazol-3-ylmethanesulfonamide], the “loss of nigral dopamine neurons” value (nigral dopamine neurons) is given as “prevented the loss of nigral dopamine neurons”, the “survival of nigrostriatal dopaminergic neurons” value [12] is given as “improved the survival of nigrostriatal dopaminergic neurons” and the “rotenone-induced toxicity (loss of corticostriatal field potential amplitude)” value [13] is given as “significantly reduced the rotenone-induced toxicity”. For the same compound, the “synuclein oligomer formation / aggregation in vitro” value (alpha-synuclein) was “inhibits the in vitro oligomerization and aggregation of alpha-synuclein”, the “loss of nigral TH-positive neurons” value [14] was “reduced the loss of nigral TH-positive neurons” and the striatal dopamine depletion [14] was “attenuating the associated striatal dopamine depletion”. The “survival of nigrostriatal dopamine neurons” value (A53T α-synuclein) was “no impact on the survival of nigrostriatal dopamine neurons”, the pace of degeneration (A53T α-synuclein; four weeks after viral vector injection, versus control group) was “significantly delayed the pace of degeneration” and the motor symptoms [15] was “improve motor symptoms”.

Reference: patent US20220000854A1 (CHASE THERAPEUTICS CORPORATION, priority 2018, published 2022)
